Here are results for ten molecules from US20240245793A1, “PSD-95 INHIBITORS AND USES THEREOF” (priority 2021, published 2024).

The first data set concerns HeLa cells stably expressing HaloGFP. Kind of data set: Chloroalkane penetration assay (CAPA), membrane permeability and cellular uptake. Format: cell-based.
Conditions: not given
An excerpt: Since PSD-95 is located intracellularly, it is essential for any drug targeting PSD-95 to efficiently cross the cell membrane. To assess the cellular permeability and delivery to the cytosol of the compounds as defined herein, the cellular chloroalkane penetration assay (CAPA) may be used (Peraro et al. 2018). This assay takes advantage of a modified haloalkane dehalogenase designed to covalently bind chloroalkane (CA) molecules. A HeLa cell line expressing a fusion protein comprising a HaloTag, a green fluorescent protein (GFP) and a mitochondria-targeting peptide is used to report cytosolic delivery. The general format of the CAPA is a pulse-chase assay (Deprey & Kritzer, 2020). Cells expressing the HaloTag enzyme are incubated with CA-tagged peptides. When these CA-peptides penetrate the cell membrane and reach the cytosol, they will bind to and react with the HaloTag (pulse step). Following a washing step, the cells are incubated with a CA-tagged dye that quantitatively penetrates the cell membrane and reacts with remaining unreacted HaloTag sites (chase step). Flow cytometry is used to measure the fluorescence intensity of the cells and the measured fluorescence is inversely proportional to the amount of CA-peptides that reach the penetrated the cells and can thus be used to assess cytosolic delivery. The obtained data is commonly expressed as CP50 values, the concentration at which 50% cell penetration is observed. The CP50 value of a compound may be measured as described in example 4.
The membrane permeability of compounds 10 to 75 was determined in HeLa cells stably expressing HaloGFP exclusively located in the cytosol. Cells were seeded at a density of 40.000 cells/well one day prior to the experiment. After the growth media was aspirated and replaced by 100 μL of Opti-MEM, 25 μL of a prepared serial dilution of the ligand in Opti-MEM was added to the cells (constant DMSO concentration), and the plate was incubated for 4 h at 37° C. and 5% CO2. The contents of the wells were aspirated, and cells were washed with fresh Opti-MEM for 15 min. After aspiration of the wash, the cells were incubated with TAMRA-CA (5 μM) for 15 min. After aspiration of the chase solution, cells were washed with Opti-MEM for 30 min. Following removal of the wash, cells were trypsinized, resuspended in PBS (2% FBS), and analyzed using a benchtop flow cytometer. Using no ligand and no TAMRA-CA control well, the obtained fluorescence intensity data was normalized and plotted as dose-response curves. Reported CP50 values represent half-maximum red fluorescence which behaves inverse to cell penetration of the ligand.
On to `CC(C)[C@H](NC(=O)[C@H](CCCNC(=N)N)NC(=O)[C@@H](NC(=O)[C@H](CCC(=O)O)NC(=O)[C@H](CCCCN)NC(=O)CCOCCOCCN(CCOCCOCCC(=O)N[C@@H](CCCCN)C(=O)N[C@@H](CCC(=O)O)C(=O)N[C@H](C(=O)N[C@@H](CCCNC(=N)N)C(=O)N[C@H](C(=O)O)C(C)C)[C@@H](C)O)C(=O)[C@H](CCCNC(=N)N)NC(=O)[C@H](CCCNC(=N)N)NC(=O)[C@H](CCCNC(=N)N)NC(=O)[C@H](CCCNC(=N)N)NC(=O)[C@H](CCCNC(=N)N)NC(=O)[C@H](CCCNC(=N)N)NC(=O)[C@H](CCCNC(=N)N)NC(=O)[C@H](CCCNC(=N)N)NC(=O)[C@H](CCCNC(=N)N)NC(=O)CCC(=O)NCCOCCOCCCCCCCl)[C@@H](C)O)C(=O)O` [Compound 30], for which the CP50 came out at 0.68 ± 0.05 µM. Still for that read-out and setting: with `CC[C@H](C)[C@H](NC(=O)CCOCCOCCN(CCOCCOCCC(=O)N[C@H](C(=O)N[C@@H](CO)C(=O)N[C@H](C(=O)N[C@@H](CC(=O)O)C(=O)N[C@H](C(=O)O)C(C)C)[C@@H](C)O)[C@@H](C)CC)C(=O)[C@H](CCCNC(=N)N)NC(=O)[C@H](CCCNC(=N)N)NC(=O)[C@H](CCCNC(=N)N)NC(=O)[C@H](CCCNC(=N)N)NC(=O)[C@H](CCCNC(=N)N)NC(=O)[C@H](CCCNC(=N)N)NC(=O)[C@H](CCCNC(=N)N)NC(=O)[C@H](CCCNC(=N)N)NC(=O)[C@H](CCCNC(=N)N)NC(=O)CCC(=O)NCCOCCOCCCCCCCl)C(=O)N[C@@H](CO)C(=O)N[C@H](C(=O)N[C@@H](CC(=O)O)C(=O)N[C@H](C(=O)O)C(C)C)[C@@H](C)O` [Compound 32] the figure was 1.05 ± 0.15 µM.

As for `CC(C)[C@H](NC(=O)[C@@H](NC(=O)[C@@H](NC(=O)[C@H](CCC(=O)O)NC(=O)[C@@H](NC(=O)CCOCCOCCN(CCOCCOCCC(=O)N[C@H](C(=O)N[C@@H](CCC(=O)O)C(=O)N[C@H](C(=O)N[C@H](C(=O)N[C@H](C(=O)O)C(C)C)C(C)C)[C@@H](C)O)C(C)C)C(=O)[C@H](CCCNC(=N)N)NC(=O)[C@H](CCCNC(=N)N)NC(=O)[C@H](CCCNC(=N)N)NC(=O)[C@H](CCCNC(=N)N)NC(=O)[C@H](CCCNC(=N)N)NC(=O)[C@H](CCCNC(=N)N)NC(=O)[C@H](CCCNC(=N)N)NC(=O)[C@H](CCCNC(=N)N)NC(=O)[C@H](CCCNC(=N)N)NC(=O)CCC(=O)NCCOCCOCCCCCCCl)C(C)C)[C@@H](C)O)C(C)C)C(=O)O` [Compound 34], the CP50 turned out to be 0.84 ± 0.15 µM.

`CC[C@H](C)[C@H](NC(=O)CCOCCOCCN(CCOCCOCCC(=O)N[C@H](C(=O)N[C@@H](CCC(=O)O)C(=O)N[C@H](C(=O)N[C@@H](CC(=O)O)C(=O)N[C@H](C(=O)O)C(C)C)[C@@H](C)O)[C@@H](C)CC)C(=O)[C@@H](CCCNC(=N)N)NC(=O)[C@H](CCCNC(=N)N)NC(=O)[C@@H](CCCCN)NC(=O)[C@H](CCCCN)NC(=O)[C@@H](CCCNC(=N)N)NC(=O)CNC(=O)[C@@H](CCCNC(=N)N)NC(=O)[C@H](CCCNC(=N)N)NC(=O)[C@@H](CCCNC(=N)N)NC(=O)CCC(=O)NCCOCCOCCCCCCCl)C(=O)N[C@@H](CCC(=O)O)C(=O)N[C@H](C(=O)N[C@@H](CC(=O)O)C(=O)N[C@H](C(=O)O)C(C)C)[C@@H](C)O` [Compound 41] came in with a CP50 of 180 ± 8.2 µM. Same read-out and setting: with `CC[C@H](C)[C@H](NC(=O)CCOCCOCCN(CCOCCOCCC(=O)N[C@H](C(=O)N[C@@H](CCC(=O)O)C(=O)N[C@H](C(=O)N[C@@H](CC(=O)O)C(=O)N[C@H](C(=O)O)C(C)C)[C@@H](C)O)[C@@H](C)CC)C(=O)[C@@H](CCCNC(=N)N)NC(=O)[C@@H](CCCCN)NC(=O)[C@@H](CCCCN)NC(=O)[C@@H](CCCNC(=N)N)NC(=O)[C@@H](CCCNC(=N)N)NC(=O)[C@@H](CCC(N)=O)NC(=O)[C@@H](CCCNC(=N)N)NC(=O)[C@@H](CCCNC(=N)N)NC(=O)[C@@H](CCCNC(=N)N)NC(=O)CCC(=O)NCCOCCOCCCCCCCl)C(=O)N[C@@H](CCC(=O)O)C(=O)N[C@H](C(=O)N[C@@H](CC(=O)O)C(=O)N[C@H](C(=O)O)C(C)C)[C@@H](C)O` [Compound 43] the figure was 221 ± 36 µM. The molecule `CC[C@H](C)[C@H](NC(=O)CCOCCOCCN(CCOCCOCCC(=O)N[C@H](C(=O)N[C@@H](CCC(=O)O)C(=O)N[C@H](C(=O)N[C@@H](CC(=O)O)C(=O)N[C@H](C(=O)O)C(C)C)[C@@H](C)O)[C@@H](C)CC)C(=O)[C@@H](CCCNC(=N)N)NC(=O)[C@@H](CCCNC(=N)N)NC(=O)[C@@H](CCCNC(=N)N)NC(=O)[C@@H](CCCNC(=N)N)NC(=O)[C@@H](CCCNC(=N)N)NC(=O)[C@@H](CCCNC(=N)N)NC(=O)[C@@H](CCCNC(=N)N)NC(=O)[C@@H](CCCNC(=N)N)NC(=O)[C@@H](CCCNC(=N)N)NC(=O)CCC(=O)NCCOCCOCCCCCCCl)C(=O)N[C@@H](CCC(=O)O)C(=O)N[C@H](C(=O)N[C@@H](CC(=O)O)C(=O)N[C@H](C(=O)O)C(C)C)[C@@H](C)O` [Compound 45] had a CP50 of 161 ± 25 µM. On the same count and under the same terms, with `CC[C@H](C)[C@H](NC(=O)CCOCCOCCN(CCOCCOCCC(=O)N[C@H](C(=O)N[C@@H](CCC(=O)O)C(=O)N[C@H](C(=O)N[C@@H](CC(=O)O)C(=O)N[C@H](C(=O)O)C(C)C)[C@@H](C)O)[C@@H](C)CC)C(=O)[C@H](CO)NC(=O)[C@H](CCC(=O)O)NC(=O)[C@H](CCCNC(=N)N)NC(=O)[C@H](CCCNC(=N)N)NC(=O)[C@H](CCCNC(=N)N)NC(=O)[C@H](CCCCN)NC(=O)[C@H](CCCCN)NC(=O)[C@H](CCCNC(=N)N)NC(=O)[C@H](CO)NC(=O)[C@H](CCC(=O)O)NC(=O)[C@H](CCCNC(=N)N)NC(=O)[C@H](CCCNC(=N)N)NC(=O)[C@H](CCCNC(=N)N)NC(=O)[C@H](CCCCN)NC(=O)[C@H](CCCCN)NC(=O)[C@H](CCCNC(=N)N)NC(=O)CCC(=O)NCCOCCOCCCCCCCl)C(=O)N[C@@H](CCC(=O)O)C(=O)N[C@H](C(=O)N[C@@H](CC(=O)O)C(=O)N[C@H](C(=O)O)C(C)C)[C@@H](C)O` [Compound 51] the figure was 3.2 ± 0.5 µM. Still for that read-out and setting: the figure for `CC[C@H](C)[C@H](NC(=O)CCOCCOCCN(CCOCCOCCC(=O)N[C@H](C(=O)N[C@@H](CCC(=O)O)C(=O)N[C@H](C(=O)N[C@@H](CC(=O)O)C(=O)N[C@H](C(=O)O)C(C)C)[C@@H](C)O)[C@@H](C)CC)C(=O)[C@H](CCCCN)NC(=O)[C@H](CO)NC(=O)[C@H](Cc1c[nH]cn1)NC(=O)[C@H](C)NC(=O)[C@H](Cc1c[nH]cn1)NC(=O)[C@H](C)NC(=O)[C@H](CCC(N)=O)NC(=O)[C@H](CCCCN)NC(=O)[C@H](CCCNC(=N)N)NC(=O)[C@@H](NC(=O)[C@H](CCCNC(=N)N)NC(=O)[C@H](CCCNC(=N)N)NC(=O)[C@H](CCCNC(=N)N)NC(=O)[C@H](CC(C)C)NC(=O)[C@@H](NC(=O)[C@@H](NC(=O)[C@H](CC(C)C)NC(=O)[C@H](CC(C)C)NC(=O)CCC(=O)NCCOCCOCCCCCCCl)[C@@H](C)CC)[C@@H](C)CC)[C@@H](C)CC)C(=O)N[C@@H](CCC(=O)O)C(=O)N[C@H](C(=O)N[C@@H](CC(=O)O)C(=O)N[C@H](C(=O)O)C(C)C)[C@@H](C)O` [Compound 53] is 1.7 ± 0.1 µM.

For `CC[C@H](C)[C@H](NC(=O)CCOCCOCCN(CCOCCOCCC(=O)N[C@H](C(=O)N[C@@H](CCC(=O)O)C(=O)N[C@H](C(=O)N[C@@H](CC(=O)O)C(=O)N[C@H](C(=O)O)C(C)C)[C@@H](C)O)[C@@H](C)CC)C(=O)[C@H](C)NC(=O)[C@H](CC(C)C)NC(=O)[C@H](CCCCN)NC(=O)[C@H](CC(C)C)NC(=O)[C@H](C)NC(=O)[C@H](C)NC(=O)[C@H](CCCCN)NC(=O)[C@H](CC(C)C)NC(=O)[C@H](C)NC(=O)[C@H](CCCCN)NC(=O)[C@H](CC(C)C)NC(=O)[C@H](C)NC(=O)[C@H](CC(C)C)NC(=O)[C@H](CCCCN)NC(=O)[C@H](CC(C)C)NC(=O)[C@H](C)NC(=O)[C@H](CC(C)C)NC(=O)[C@H](CCCCN)NC(=O)CCC(=O)NCCOCCOCCCCCCCl)C(=O)N[C@@H](CCC(=O)O)C(=O)N[C@H](C(=O)N[C@@H](CC(=O)O)C(=O)N[C@H](C(=O)O)C(C)C)[C@@H](C)O` [Compound 55], the CP50 was determined as 3.7 ± 0.3 µM.

The data set is the same for the next values; noted with them: CA-tagged NPEG4-(IETDV)2 with various CPP-tags, 4 h at 37° C.; mean ± SEM (Table 11, FIG. 8).
Turning to `CC[C@H](C)[C@H](NC(=O)CCOCCOCCN(CCOCCOCCC(=O)N[C@H](C(=O)N[C@@H](CCC(=O)O)C(=O)N[C@H](C(=O)N[C@@H](CC(=O)O)C(=O)N[C@H](C(=O)O)C(C)C)[C@@H](C)O)[C@@H](C)CC)C(=O)[C@@H](CCCNC(=N)N)NC(=O)[C@@H](CCCNC(=N)N)NC(=O)[C@@H](CCCNC(=N)N)NC(=O)[C@@H](CCC(N)=O)NC(=O)[C@@H](CCCNC(=N)N)NC(=O)[C@@H](CCCNC(=N)N)NC(=O)[C@@H](CCCCN)NC(=O)[C@@H](CCCCN)NC(=O)[C@@H](CCCNC(=N)N)NC(=O)CNC(=O)[C@@H](Cc1ccc(O)cc1)NC(=O)CCC(=O)NCCOCCOCCCCCCCl)C(=O)N[C@@H](CCC(=O)O)C(=O)N[C@H](C(=O)N[C@@H](CC(=O)O)C(=O)N[C@H](C(=O)O)C(C)C)[C@@H](C)O` [Compound 39], the CP50 is 10.7 ± 0.7 µM.
